Like-named read-outs stand apart in the source and are kept apart here.
Assay: Tigecycline plasma PK and % F after intraduodenal (ID) injection in anesthetized rats
Type: in vivo, Sprague-Dawley Rats
Details: for AUC(0-t) / Tmax / bioavailability / Cmax: female, Sprague-Dawley, rat, plasma; for bioavailability: read-out: % F, mean
Experimental: Animals weighed approximately 250 g at the time of testing. Rats were fasted overnight (with water available), prior to dosing.
Intravenous (IV) doses were administered as a bolus injection into the left carotid […] at a dose volume of 1.6 mL/kg. Intraduodenal doses were administered as bolus injections into the duodenum at a dose volume of 1.2 mL/kg.
An additional study was conducted exploring the effect of formulation pH at constant CA and LLC concentrations (RA867).
Female rats were maintained in groups of 3 per polycarbonate (or equivalent) shoebox cage with fresh wood chip bedding at 20-22° C. under a 12 hour on/off light:dark cycle. […] After the rats went limp they were injected intraperitoneally (IP) with 0.1 mL ketamine/xylazine. The anesthetic state was maintained by IP injection of ketamine/xylazine on an as needed basis. Animal weights were determined post-anesthesia induction.
An indwelling catheter for blood sampling was inserted into the right carotid artery by exposing the trachea with Mayo scissors, clamping the bottom of the […] and tying off the top with surgical suture. The area between was nicked with small sharp scissors and Intramedic polyethylene tubing was inserted into the nicked area. The artery with the tubing was sealed with suture to prevent leakage. A 23-gauge Intramedic Luer Stub Adapter was inserted into the cannula and attached to a 3 way valve which was connected to a 3 cc syringe filled with 0.9% normal saline and a 1 cc syringe filled with 5 U/mL sodium heparin for blood sampling.
An intraduodenal injection was utilized to mimic oral delivery of an enterically coated capsule or tablet formulation. […] Mayo scissors were used to expose the duodenum and the site of administration was identified by measuring 5 cm from the junction of the stomach and the duodenum towards the jejunum. The measured site was identified by inserting a small piece of surgical suture underneath the site for injection. After the formulation was injected, the abdominal cavity was closed with surgical clips.
Blood samples were collected in tubes containing 20 μL 180 mM EDTA. The tubes were maintained on ice and then centrifuged at approximately 3000 rpm at 4° C. for 5 minutes. Plasma was harvested immediately after centrifugation of the samples and stored at −20° C. pending analysis.
Minocycline (VWR international) was used as an internal standard. Sample processing/clean-up of plasma samples was carried out offline by protein precipitation with acidified acetonitrile.
The HPLC system consisted of Shimadzu SIL-HTc HPLC system equipped with dual Shimadzu LC-10ADvp isopumps, a Shimadzu CTO-10ASvp column temperature controller and a Shimadzu SPD-10Avp variable wavelength detector. […] Mobile phase A consisted of 23 mM phosphate buffer pH 2.5 with 6 mM 1-octanesulfonic acid, while mobile phase B consisting of pure acetonitrile. […] The mobile phase flow rate was 1.2 mL/min. Detection was performed using the SPD-10Avp variable wavelength detector set at 350 nm, with a sensitivity of 0.001 aufs.
The samples were then centrifuged under refrigeration at 13 k rpm for 30 minutes. The supernatant was taken and the liquid was removed to dryness in a turbovap. The samples were then reconstituted in 55 μL 0.1M phosphate buffer, pH 3.8. Samples were maintained at 10° C. while on the autoinjector during sequence. The injection volume was 50 μL. The unknown concentration in rat plasma samples was determined by interpolation of the peak area ratios of analyte:internal standard versus the ratio of their nominal concentrations into the regression line obtained from calibration standards spiked in pooled rat plasma. No regression weighting was used for the calculations. […] The calibration curve covered the range of 0.05 μg/mL to 5.0 μg/mL.

[1] = ID, 400 mM CA (pH 3.5), 26 mM LLC, 4.8 mg/kg (RA851), parent Tigecycline peak only, 4.8 mg/kg
[2] = ID, 400 mM CA (pH 3.5), 26 mM LLC, 9.0 mg/kg (RA853), parent Tigecycline peak only, 9 mg/kg
[3] = 4.6 mg/kg, RA861, ID, 26 mM LLC alone, mean dose 4.6 mg/kg
[4] = 4.6 mg/kg, RA861, ID, 400 mM CA/26 mM LLC, mean dose 4.6 mg/kg
[5] = 4.8 mg/kg, ID, PBS, 4.8 mg/kg (RA851)
[6] = 4.8 mg/kg, RA861, ID, 400 mM CA alone, mean dose 4.8 mg/kg
[7] = 4.8 mg/kg, pH 3.5, ID, 100 mM CA (pH 3.5), 26 mM LLC, 4.8 mg/kg (RA851)
[8] = 4.8 mg/kg, pH 3.5, ID, 400 mM CA (pH 3.5), 26 mM LLC, 4.8 mg/kg (RA851), parent Tigecycline peak only
[9] = 4.8 mg/kg, pH 3.5, RA867, ID, 400 mM CA/26 mM LLC pH 3.5, 4.8 mg/kg
[10] = 4.8 mg/kg, pH 6, RA867, ID, 400 mM CA/26 mM LLC pH 6.0, 4.8 mg/kg
[11] = 9 mg/kg, ID, PBS, 9.0 mg/kg (RA853), without animal RA853-6
[12] = 9 mg/kg, pH 3.5, ID, 100 mM CA (pH 3.5), 26 mM LLC, 9.0 mg/kg (RA853)
[13] = 9 mg/kg, pH 3.5, ID, 400 mM CA (pH 3.5), 26 mM LLC, 9.0 mg/kg (RA853), parent Tigecycline peak only

CN(C)c1cc(NC(=O)CNC(C)(C)C)c(O)c2c1C[C@H]1C[C@H]3[C@H](N(C)C)C(O)=C(C(N)=O)C(=O)[C@@]3(O)C(O)=C1C2=O [Tigecycline]
increase of tigecycline plasma concentrations (ID, 26 mM LLC and 100 mM citrate pH 3.5, versus PBS): 7-9 x
Cmax, Mean (ID, 100 mM CA (pH 3.5), 26 mM LLC, 4.8 mg/kg (RA851), 4.8 mg/kg): 714 ng/mL
% F, Mean (ID, 100 mM CA (pH 3.5), 26 mM LLC, 4.8 mg/kg (RA851), relative to 0.64 mg/kg IV): 10.85%
Tmax, Mean (ID, 100 mM CA (pH 3.5), 26 mM LLC, 9.0 mg/kg (RA853), 9 mg/kg): 16.667 min
% F, Mean (ID, 100 mM CA (pH 3.5), 26 mM LLC, 9.0 mg/kg (RA853), relative to 12 mg/kg IV): 11.36%
increase of mean % F (ID, 100 mM CA pH 3.5, 26 mM LLC, versus PBS): 4-7 fold
Cmax, Mean [1]: 792 ng/mL
Tmax, Mean [1]: 16.7 min
AUC(0-t), Mean [2]: 137.6 µg·min/mL
Cmax, Mean [2]: 2492 ng/mL
AUC(0-t), Mean (ID, PBS, 9.0 mg/kg (RA853), without animal RA853-6, 9 mg/kg): 15.7 µg·min/mL
% F, Mean (ID, PBS, 9.0 mg/kg (RA853), without animal RA853-6, relative to 12 mg/kg IV): 2.76%
AUC(0-t) [3]: 68 ng·h/mL
Tmax [3]: 18 min
bioavailability [3]: 1%
Cmax (4.6 mg/kg, RA861, ID, 26 mM LLC alone, mean dose 4.6 mg/kg, read-out: Cmax, mean): 64.1 ng/mL
AUC(0-t) [4]: 139 ng·h/mL
Tmax [4]: 10 min
bioavailability [4]: 2.1%
Cmax (4.6 mg/kg, RA861, ID, 400 mM CA/26 mM LLC, mean dose 4.6 mg/kg, read-out: Cmax, mean): 30.6 ng/mL
AUC(0-t) [5]: 116 ng·h/mL
Tmax [5]: 90 min
Cmax (4.8 mg/kg, ID, PBS, 4.8 mg/kg (RA851), read-out: Cmax, Mean): 100 ng/mL
AUC(0-t) [6]: 17.5 ng·h/mL
Tmax [6]: 20 min
bioavailability [6]: 0.3%
Cmax (4.8 mg/kg, RA861, ID, 400 mM CA alone, mean dose 4.8 mg/kg, read-out: Cmax, mean): 11.7 ng/mL
AUC(0-t) [7]: 823 ng·h/mL
Tmax [7]: 20 min
Cmax (4.8 mg/kg, pH 3.5, ID, 100 mM CA (pH 3.5), 26 mM LLC, 4.8 mg/kg (RA851), read-out: Cmax, Mean): 710 ng/mL
AUC(0-t) [8]: 1430 ng·h/mL
Tmax [8]: 17 min
Cmax (4.8 mg/kg, pH 3.5, ID, 400 mM CA (pH 3.5), 26 mM LLC, 4.8 mg/kg (RA851), parent Tigecycline peak only, read-out: Cmax, Mean): 790 ng/mL
AUC(0-t) [9]: 537 ng·h/mL
Tmax [9]: 12 min
bioavailability [9]: 7.7%
Cmax (4.8 mg/kg, pH 3.5, RA867, ID, 400 mM CA/26 mM LLC pH 3.5, 4.8 mg/kg, read-out: Cmax, mean): 488 ng/mL
AUC(0-t) [10]: 385 ng·h/mL
Tmax [10]: 43 min
bioavailability [10]: 5.5%
Cmax (4.8 mg/kg, pH 6, RA867, ID, 400 mM CA/26 mM LLC pH 6.0, 4.8 mg/kg, read-out: Cmax, mean): 278 ng/mL
AUC(0-t) [11]: 262 ng·h/mL
Tmax [11]: 30 min
Cmax (9 mg/kg, ID, PBS, 9.0 mg/kg (RA853), without animal RA853-6, read-out: Cmax, Mean): 220 ng/mL
AUC(0-t) [12]: 1280 ng·h/mL
Tmax [12]: 17 min
Cmax (9 mg/kg, pH 3.5, ID, 100 mM CA (pH 3.5), 26 mM LLC, 9.0 mg/kg (RA853), read-out: Cmax, Mean): 2060 ng/mL
AUC(0-t) [13]: 2300 ng·h/mL
Tmax [13]: 10 min
Cmax (9 mg/kg, pH 3.5, ID, 400 mM CA (pH 3.5), 26 mM LLC, 9.0 mg/kg (RA853), parent Tigecycline peak only, read-out: Cmax, Mean): 2490 ng/mL
AUC(0-t) ([…], RA869, ID, 26 mM LLC only): 91.7 ng·h/mL
Tmax ([…], RA869, ID, 26 mM LLC only): 10 min
bioavailability ([…], RA869, ID, 26 mM LLC only, […]): 8.9%

— patent US9526785B2, “Pharmaceuticals for oral delivery” (Enteris BioPharma, Inc., priority 2013, dated 2016)
